Results from US10126289B2, “Multimodality CMOS sensor array for physiological characterization of cells” (Georgia Tech Research Corporation, priority 2015, dated 2018).

Tests used:
[1] = test system: human cardiomyocytes; test: Joint-modality cardiac drug screening: real-time cellular impedance sensing (cell attachment); format: cell-based; settings: 10 nM isoproterenol; FIG. 20
Procedure: (§1) Human Cardiomyocytes. Human ESCs are first cultured in a monolayer until confluence. Next, cardiomyocytes are directly differentiated through the use of small molecules Gsk3 inhibitor and Wnt inhibitor for 14 days. Finally, the CMOS chip is sterilized using 70% ethanol and coated with a Matrigel matrix as a protein mixture layer to enhance cell culture and attachment. Cardiomyocytes are then seeded onto the CMOS chips as either single cells or aggregated cardiospheres.
(§2) On-chip cultured human cardiomyocytes was used in this experiment. Their autonomous beating is captured by the extracellular voltage recording, and the beating rate is used to characterize the potency of the cardiac drugs. Isoproterenol, a small molecule cardiac drug, is used in this example. Isoproterenol has its known drug effect of activating the β1-receptors on the cardiac cells and increasing the cardiac cells beating rate. It has been widely used to treat bradycardia and heart block.
(§3) First, the on-chip cardiomyocytes beating spikes were recorded as the extracellular voltage recording in a normal culture medium. The baseline cellular impedance mapping was also measured. Next, 10 nM isoproterenol was directed to the cell culture medium using pipettes, and the cardiomyocytes are real-time monitored with joint-modality measurements. […]

[2] = test system: human cardiomyocytes; test: Joint-modality cardiac drug screening: extracellular voltage recording of cardiomyocyte beating on CMOS sensor chip; format: cell-based; settings: 10 nM isoproterenol in culture medium
Procedure: as §1, §2, §3

[3] = test system: human ovarian cancer cells (HeyA8-F8); settings: general statement; depends on number of cells and luciferin concentration; cited from earlier work
[4] = test system: human ovarian cancer cells (HeyA8-F8); settings: 200 μg/mL luciferin at T=0; VPD 0.4V
Procedure: Ovarian Cancer Cells. For culturing the ovarian cancer cells (HeyA8-F8), the CMOS chip surface is sterilized by 70% ethanol and then washed three times with sterile Phosphate Buffered Saline (PBS). To increase cell adhesion to the chip surface, 0.1% gelatin is added onto the chip for 30 minutes before being aspirated. […] Ovarian cancer cells are then seeded directly onto the CMOS chip and allowed to attach before adding 1 mL of cell culture media.
The human ovarian cancer cells (HeyA8-F8) can constitutively express firefly luciferase. […] The bioluminescence information can be used to verify the viability of the HeyA8-F8 cancer cells and can be further extended to other bioluminescence cell-based assays.
Since the intensity of the bioluminescence light is generally weak, the background noise, such as the photodiode dark current, should be suppressed and calibrated. […] Moreover, dark current in each sensing pixel is recorded before the measurement and then subtracted after the bioluminescence recoding.
The CMOS sensor chip starts data recording after a 130-second setup time. During the optical detection, the photodiode reset pulse width is 1 second and the repetition rate is 0.05 Hz. Thus, each photo current integration window is 19 seconds, and the optical detection data is refreshed every 20 seconds. […]

Compound	real-time cardiomyocytes impedance change (cell attachment) [1]	increase of recorded number of cell beating spikes in the 90-second counting window [2] [%]	time of luminescence emission peak after administration (in general) [3]	time at which bioluminescence emission fully decays [4] [s]	time of bioluminescence emission peak after administration [4]
CC(C)NCC(O)c1ccc(O)c(O)c1 (centres unmarked) [isoproterenol, Isoproterenol]	small decrease	150	–	–	–
O=C(O)[C@H]1CSC(c2nc3ccc(O)cc3s2)=N1 [luciferin]	–	–	about 5 minutes	800	around 300 seconds
